Measured values as given in US6452005B1, “JAK-3 inhibitors for treating allergic disorders” (Parker Hughes Institute, priority 1999, dated 2002).

Assays:
LYN = target: T1, LYN (Homo sapiens, UniProt P07948); assay: Immune complex kinase assay, LYN from NALM-6 cells; format: biochemical; conditions: concentrations as high as 350 μM
T1 construct: LYN was immunoprecipitated from whole cell lysates of NALM-6 human leukemia cells; endogenous in cells; host or cells: NALM-6 human B-lineage ALL cells

recombinant JAK2 = recombinant JAK2 (Homo sapiens, UniProt O60674); assay: Immune complex kinase assay, recombinant JAK2; conditions: FIG. 6C & D
recombinant JAK2, sequence (O60674 whole entry): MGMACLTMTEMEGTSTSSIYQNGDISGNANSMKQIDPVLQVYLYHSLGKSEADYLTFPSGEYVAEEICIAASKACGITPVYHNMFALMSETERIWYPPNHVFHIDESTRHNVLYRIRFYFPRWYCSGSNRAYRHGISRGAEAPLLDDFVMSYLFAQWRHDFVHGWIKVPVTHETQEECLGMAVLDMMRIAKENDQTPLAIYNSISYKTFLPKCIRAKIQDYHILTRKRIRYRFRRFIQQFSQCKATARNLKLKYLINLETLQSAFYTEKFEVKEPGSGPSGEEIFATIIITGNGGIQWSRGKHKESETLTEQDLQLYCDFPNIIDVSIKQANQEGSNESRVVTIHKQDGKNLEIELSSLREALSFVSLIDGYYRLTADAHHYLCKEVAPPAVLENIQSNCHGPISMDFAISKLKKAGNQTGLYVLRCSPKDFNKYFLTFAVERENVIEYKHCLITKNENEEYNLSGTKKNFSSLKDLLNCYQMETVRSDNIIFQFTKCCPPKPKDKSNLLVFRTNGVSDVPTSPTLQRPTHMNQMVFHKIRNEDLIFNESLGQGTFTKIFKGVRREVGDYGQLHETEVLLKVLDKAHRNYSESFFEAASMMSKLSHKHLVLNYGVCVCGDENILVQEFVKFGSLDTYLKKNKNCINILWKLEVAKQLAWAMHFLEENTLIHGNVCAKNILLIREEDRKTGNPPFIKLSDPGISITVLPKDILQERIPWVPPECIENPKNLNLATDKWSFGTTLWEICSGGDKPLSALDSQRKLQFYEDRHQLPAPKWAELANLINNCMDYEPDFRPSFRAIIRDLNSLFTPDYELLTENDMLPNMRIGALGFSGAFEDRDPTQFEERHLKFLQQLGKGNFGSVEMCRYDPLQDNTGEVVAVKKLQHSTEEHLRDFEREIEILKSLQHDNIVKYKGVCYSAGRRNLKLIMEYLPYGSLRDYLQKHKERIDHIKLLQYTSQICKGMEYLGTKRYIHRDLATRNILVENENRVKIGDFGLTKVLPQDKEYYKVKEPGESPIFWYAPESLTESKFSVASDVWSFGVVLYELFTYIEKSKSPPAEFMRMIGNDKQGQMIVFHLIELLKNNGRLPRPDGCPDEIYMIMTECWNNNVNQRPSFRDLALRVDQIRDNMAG
Description: In FIGS. 6A-6D, JAK3, JAK1, and JAK2 were immunoprecipitated from Sf21 insect ovary cells transfected with the appropriate baculovirus expression vectors and treated with WHI-P131, then subjected to in vitro kinase assays as described in the Examples below. The enzymatic activity of JAKs was determined by measuring autophosphorylation in a 10 minute kinase assay, as described in the Examples below. The kinase activity (KA) levels were expressed as percentage of baseline activity (%CON).
Immune Complex Kinase Assays. Sf21 (IPLB-SF21-AE) cells (Vassilev et. al., 1999, J. Biol. Chem,. 274:1646-1656) derived from the ovarian tissue of the fall armyworm Spodotera frugiperda, were obtained from Invitrogen and maintained at 26-28° C. in Grace's insect cell medium supplemented with 10% FBS and 1.0% antibiotic/antimycotic (GIBCO-BRL). Stock cells were maintained in suspension at 0.2-1.6×10^6/ml in 600 ml total culture volume in 1 L Bellco spinner flasks at 60-90 rpm. Cell viability was maintained at 95-100% as determined by trypan blue dye exclusion.
Sf21 cells were infected with a baculovirus expression vector for BTK, SYK, JAK1, JAK2, or JAK3, as previously reported (Mahajan et. al., 1999, J. Biol. Chem., 274:1646-1656). […]

IRK = target: T2, IRK (Homo sapiens, UniProt P06213); assay: Immune complex kinase assay, IRK from HepG2 cells; format: biochemical; conditions: concentrations as high as 350 μM
T2 construct: IRK was immunoprecipitated from the lysates with an anti-IRb antibody; endogenous in cells; host or cells: HepG2 human hepatoma cells, insulin-stimulated
T2 sequence (P06213 763-1382 limits assumed): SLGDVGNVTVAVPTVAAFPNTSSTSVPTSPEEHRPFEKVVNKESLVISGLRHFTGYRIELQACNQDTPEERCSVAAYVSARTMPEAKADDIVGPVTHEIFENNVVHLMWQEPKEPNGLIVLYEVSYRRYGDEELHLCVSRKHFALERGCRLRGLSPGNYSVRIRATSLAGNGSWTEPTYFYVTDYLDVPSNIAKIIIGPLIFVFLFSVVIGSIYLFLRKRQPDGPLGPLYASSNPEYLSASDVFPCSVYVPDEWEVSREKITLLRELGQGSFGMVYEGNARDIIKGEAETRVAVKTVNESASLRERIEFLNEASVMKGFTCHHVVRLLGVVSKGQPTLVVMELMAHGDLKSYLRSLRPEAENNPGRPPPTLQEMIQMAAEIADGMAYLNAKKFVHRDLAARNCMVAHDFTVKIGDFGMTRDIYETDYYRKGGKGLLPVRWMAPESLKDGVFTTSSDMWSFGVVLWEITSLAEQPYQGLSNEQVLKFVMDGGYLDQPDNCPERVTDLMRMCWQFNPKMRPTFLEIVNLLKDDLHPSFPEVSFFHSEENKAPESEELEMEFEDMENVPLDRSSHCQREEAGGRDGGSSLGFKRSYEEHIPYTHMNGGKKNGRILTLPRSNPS
T2 sequence (P06213 28-758 partner limits assumed): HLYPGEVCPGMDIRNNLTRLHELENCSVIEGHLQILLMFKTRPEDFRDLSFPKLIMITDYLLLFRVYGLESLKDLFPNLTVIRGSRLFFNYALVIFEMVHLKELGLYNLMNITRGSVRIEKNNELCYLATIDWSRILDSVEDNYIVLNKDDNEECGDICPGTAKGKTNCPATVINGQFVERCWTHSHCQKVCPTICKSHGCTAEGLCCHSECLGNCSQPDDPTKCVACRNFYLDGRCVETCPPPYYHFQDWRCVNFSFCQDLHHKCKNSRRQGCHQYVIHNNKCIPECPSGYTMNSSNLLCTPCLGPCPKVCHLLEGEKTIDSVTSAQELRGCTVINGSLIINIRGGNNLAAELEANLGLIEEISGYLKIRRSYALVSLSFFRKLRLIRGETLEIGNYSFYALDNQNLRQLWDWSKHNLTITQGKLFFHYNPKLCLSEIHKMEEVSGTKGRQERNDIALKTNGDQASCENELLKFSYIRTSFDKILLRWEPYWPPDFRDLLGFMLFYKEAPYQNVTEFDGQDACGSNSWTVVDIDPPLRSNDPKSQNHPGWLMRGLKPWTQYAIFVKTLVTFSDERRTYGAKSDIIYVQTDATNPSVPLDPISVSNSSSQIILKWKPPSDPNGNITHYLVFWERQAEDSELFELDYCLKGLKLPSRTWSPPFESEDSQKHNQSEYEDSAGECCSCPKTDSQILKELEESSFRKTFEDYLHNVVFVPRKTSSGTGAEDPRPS
Description: For insulin receptor kinase (IRK) assays, HepG2 human hepatoma cells grown to approximately 80% confluency were washed once with serum-free DMEM and starved for 3 hours at 37° in a CO2 incubator. Subsequently, cells were stimulated with insulin (Eli Lilly, cat# CP-410;10 units/ml/10×10^6 cells) for 10 minutes at room temperature. Following this IRK activation step, cells were washed once with serum free medium, lysed in NP-40 buffer and IRK was immunoprecipitated from the lysates with an anti-IRb antibody (Santa Cruz, Cat.# sc-711, polyclonal IgG). Prior to performing the immune complex kinase assays, the beads were equilibrated with the kinase buffer (30 mM Hepes pH 7.4, 30 mM NaCl, 8 mM MgCl2, 4 mM MnCl2).

human JAK3 = target: T3, human JAK3 (Homo sapiens, UniProt P52333); assay: JAK3 kinase inhibition (Table 1 IC50, immune complex kinase assay); format: biochemical; conditions: Table 1; measured inhibition values for JAK3 kinase
T3 construct: KL-2 EBV-transformed human lymphoblastoid B cells (native JAK3 kinase assays); endogenous in cells; host or cells: KL-2 EBV-transformed human lymphoblastoid B cell line
T3 sequence (P52333 1-1124): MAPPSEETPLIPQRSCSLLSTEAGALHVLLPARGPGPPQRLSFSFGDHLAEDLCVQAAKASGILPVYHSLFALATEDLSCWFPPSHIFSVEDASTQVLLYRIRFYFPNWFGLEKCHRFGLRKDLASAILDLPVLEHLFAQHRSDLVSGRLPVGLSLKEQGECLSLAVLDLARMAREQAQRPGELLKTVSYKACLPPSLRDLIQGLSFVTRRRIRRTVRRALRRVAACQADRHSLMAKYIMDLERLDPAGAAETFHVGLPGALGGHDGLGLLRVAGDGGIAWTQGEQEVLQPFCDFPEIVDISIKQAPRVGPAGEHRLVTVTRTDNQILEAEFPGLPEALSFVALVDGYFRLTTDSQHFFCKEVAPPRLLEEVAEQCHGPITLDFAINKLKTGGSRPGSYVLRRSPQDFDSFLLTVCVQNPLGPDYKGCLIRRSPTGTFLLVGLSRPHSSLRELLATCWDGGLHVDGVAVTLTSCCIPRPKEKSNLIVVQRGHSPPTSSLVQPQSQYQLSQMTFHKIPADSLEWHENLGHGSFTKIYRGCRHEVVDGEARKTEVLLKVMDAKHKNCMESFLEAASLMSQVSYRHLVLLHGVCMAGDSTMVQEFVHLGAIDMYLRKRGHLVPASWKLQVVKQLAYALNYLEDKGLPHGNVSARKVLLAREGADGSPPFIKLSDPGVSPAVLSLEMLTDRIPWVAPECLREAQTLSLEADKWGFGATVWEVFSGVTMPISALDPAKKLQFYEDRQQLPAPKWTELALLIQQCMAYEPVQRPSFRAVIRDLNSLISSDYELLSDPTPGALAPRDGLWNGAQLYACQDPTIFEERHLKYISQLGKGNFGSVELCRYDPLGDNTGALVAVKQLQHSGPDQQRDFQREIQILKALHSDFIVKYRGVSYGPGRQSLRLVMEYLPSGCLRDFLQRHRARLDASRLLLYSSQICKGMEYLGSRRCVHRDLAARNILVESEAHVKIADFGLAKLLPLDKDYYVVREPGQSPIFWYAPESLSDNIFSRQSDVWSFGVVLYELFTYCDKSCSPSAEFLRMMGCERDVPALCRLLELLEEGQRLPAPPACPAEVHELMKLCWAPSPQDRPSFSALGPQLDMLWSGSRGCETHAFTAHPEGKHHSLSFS
Description: Immune Complex Kinase Assays.
KL-2 EBV-transformed human lymphoblastoid B cells (native JAK3 kinase assays) or insect ovary cells (recombinant JAK3 kinase assays) were lysed with NP-40 lysis buffer (50 mM Tris, pH 8, 150 mM NaCl, 5 mM EDTA, 1% NP-40, 100 μM sodium orthovanadate, 100 μM sodium molybdate, 8 μg/ml aprotinin, 5 μg/ml leupeptin, and 500 μM PMSF) and centrifuged 10 minutes at 13000×g to remove insoluble material. Samples were immunoprecipitated with antisera prepared against JAK3. The antisera were diluted and immune complexes collected by incubation with 15 μl protein A Sepharose. After 4 washes with NP-40 lysis buffer, the protein A Sepharose beads were washed once in kinase buffer (20 mM MOPS, pH 7.0, 10 mM MgCl2) and resuspended in the same buffer. Reactions were initiated by the addition of 25 μCi γ[^32P] ATP (5000 Ci/mMole) and unlabeled ATP to a final concentration of 5 μM. Reactions were terminated by boiling for 4 min in SDS sample buffer. Samples were run on 9.5% SDS polyacrylamide gels and labeled proteins will be detected by autoradiography. Following electrophoresis, kinase gels were dried onto Whatman 3M filter paper and subjected to phosphoimaging on a Molecular Imager (Bio-Rad, Hercules, Calif.) as well as autoradiography on film. For each drug concentration, a kinase activity index (KA) was determined by comparing the kinase activity in phosphorimager units (PIU) to that of the baseline sample. In some experiments, cold kinase assays were performed, as described (Uckun et. al., 1998, Clin. Cancer Res., 4:901-912).

T1 sequence (P07948 whole entry): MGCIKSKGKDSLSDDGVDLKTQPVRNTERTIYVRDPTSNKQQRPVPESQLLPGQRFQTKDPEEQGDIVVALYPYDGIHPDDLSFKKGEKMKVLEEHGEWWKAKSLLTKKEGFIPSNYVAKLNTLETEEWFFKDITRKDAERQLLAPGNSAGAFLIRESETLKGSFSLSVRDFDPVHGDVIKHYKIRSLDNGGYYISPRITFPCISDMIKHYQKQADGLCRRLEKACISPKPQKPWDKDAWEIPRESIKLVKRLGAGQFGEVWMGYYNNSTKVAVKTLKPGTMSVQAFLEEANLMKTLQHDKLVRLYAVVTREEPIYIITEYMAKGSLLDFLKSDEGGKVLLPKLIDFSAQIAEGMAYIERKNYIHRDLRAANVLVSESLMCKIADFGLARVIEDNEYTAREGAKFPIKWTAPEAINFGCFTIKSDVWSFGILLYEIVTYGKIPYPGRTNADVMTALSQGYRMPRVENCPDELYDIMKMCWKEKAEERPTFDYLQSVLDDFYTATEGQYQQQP

COc1cc2ncnc(Nc3ccc(O)cc3)c2cc1OC [WHI-P131, 4-(4′-Hydroxylphenyl)-amino-6,7-dimethoxyquinazoline]
effect on enzymatic activity of LYN (LYN): did not affect | inhibitory activity against recombinant JAK2 (recombinant JAK2): did not exhibit any detectable inhibitory activity | effect on enzymatic activity of IRK (IRK): did not affect | IC50 (human JAK3): 78 µM
